Source: patent publication US10155743B2, “Glutarimide derivatives, use thereof, pharmaceutical composition based thereon and methods for producing glutarimide derivatives” (OBSCHESTVO S OGRANICHENNOI OTVETSTVENNOSTIYU …, priority 2013, dated 2018)
Where two headings read alike, the source gives them in different places.

System: human virus hRSV adapted to the growth in mouse lungs
Experiment: animal or person
Type: in vivo
Details: for Body weight of the mice after infection with hRSV, Day 5 / Body weight of the mice after infection with hRSV, Day 7: 30 mg/kg orally once daily for 5 days from 24 h after infection, M ± SD, n = 6; for hRSV viral titer in mouse lungs, Day 5, lg / hRSV viral titer in mouse lungs, Day 7, lg: 30 mg/kg orally once daily for 5 days, 10% lung suspension titrated in Hep-2 cell culture, TCID; for log reduction at 30 mg/kg: human respiratory syncytial virus, po, 120 h
[1] = read-out: Suppression of the reproduction of hRSV virus in mouse lungs, Day 5, Δlg
[2] = read-out: Suppression of the reproduction of hRSV virus in mouse lungs, Day 7, Δlg

SMILES	Body weight of the mice after infection with hRSV, Day 5	Body weight of the mice after infection with hRSV, Day 7	hRSV viral titer in mouse lungs, Day 5, lg	hRSV viral titer in mouse lungs, Day 7, lg	log reduction at 30 mg/kg [1]	log reduction at 30 mg/kg [2]
O=C1CCCC(=O)N1CCc1cnc[nH]1 [Compound 1, 1-(2-(1H-imidazol-4-yl)ethyl)piperidine-2,6-dione]	16.43 ± 0.14	17.98 ± 0.26	2.88 ± 0.59 lg	1.46 ± 0.17 lg	1.73 ± 0.59	2.34 ± 0.17
CC1(C)CC(=O)N(CCc2cnc[nH]2)C(=O)C1 [Compound 3]	16.65 ± 0.28	17.32 ± 0.25	3.04 ± 0.42 lg	1.46 ± 0.17 lg	1.56 ± 0.42	2.18 ± 0.28
O=C1CCCC(=O)N1CCC1CCCN1 (stereo not shown) [Compound 4]	16.77 ± 0.20	17.08 ± 0.32	2.58 ± 0.51 lg	1.38 ± 0.24 lg	2.02 ± 0.51	2.58 ± 0.53
Cn1cnc(CCN2C(=O)CCCC2=O)c1 [Compound 5]	16.02 ± 0.16	17.78 ± 0.26	2.17 ± 0.37 lg	0.88 ± 0.31 lg	2.43 ± 0.37	2.93 ± 0.31
O=C1CCCC(=O)N1CCc1nccs1 [Compound 6]	16.47 ± 0.26	17.02 ± 0.29	–	–	–	–
O=C1CCCC(=O)N1CCc1nc2ccccc2s1 [Compound 7, 1-[2-(1H-benzothiazol-2-yl)ethyl]piperidine-2-dione]	17.17 ± 0.26	18.53 ± 0.55	–	–	–	–
O=C1CCCC(=O)N1CCc1ncc[nH]1 [Compound 8]	15.18 ± 0.18	17.13 ± 0.27	–	–	–	–
O=C1CCCC(=O)N1CCc1ccncc1 [Compound 9]	15.75 ± 0.33	16.18 ± 0.29	–	–	–	–
O=C1CCCC(=O)N1CCc1cccnc1 [Compound 10, 1-[2-(1H-pyridyl-3-yl)ethyl]piperidine-2,6-dione]	16.18 ± 0.29	16.53 ± 0.20	–	–	–	–
O=C1CCCC(=O)N1CCN1CCOCC1 [Compound 117]	16.07 ± 0.12	16.48 ± 0.28	3.00 ± 0.41 lg	1.46 ± 0.24 lg	1.6 ± 0.41	2.22 ± 0.34
O=C1CCCC(=O)N1CCC1CCNC1 (stereo not shown) [Compound 120]	16.12 ± 0.27	17.22 ± 0.20	3.04 ± 0.47 lg	1.50 ± 0.25 lg	1.56 ± 0.47	2.05 ± 0.25
O=C1CCCC(=O)N1CCC1CCCNC1 (stereo not shown) [Compound 121]	16.35 ± 0.20	17.38 ± 0.29	3.08 ± 0.47 lg	1.50 ± 0.14 lg	1.52 ± 0.47	2.09 ± 0.22
O=C1CCCC(=O)N1CCC1CCCCN1 (stereo not shown) [Compound 122]	16.93 ± 0.32	16.37 ± 0.21	3.04 ± 0.44 lg	1.75 ± 0.41 lg	1.56 ± 0.44	1.88 ± 0.47
O=C1CCCC(=O)N1CCC1CCNCC1 [Compound 123]	15.87 ± 0.20	17.55 ± 0.53	2.50 ± 0.43 lg	1.33 ± 0.19 lg	2.1 ± 0.43	2.62 ± 0.5
O=C1CCCC(=O)N1CCc1nc2ccccc2[nH]1 [Compound 124]	16.43 ± 0.26	16.37 ± 0.43	2.46 ± 0.22 lg	0.83 ± 0.37 lg	2.14 ± 0.22	2.97 ± 0.37
